Reference: patent publication US4490376A, “Substituted ethenyl derivatives of 1H-pyrazolo-[1,5-a]pyrimidine having gastroenteric activity, compositions thereof, and methods of using the same” (Farmitalia Carlo Erba S.p.A, priority 1982, dated 1984)

Legend:
restraint ulcers = experiment: inhibition of restraint ulcers in rats (Bonfils et al.), anti-ulcerogenic activity; type: in vivo, Sprague-Dawley male rats; details: po; rat; p.o. one hour before immobilization; lesions counted 4 hours after immobilization; approximate ED50; read-out: Antiulcerogenic activity ED50 p.o.
Text: (§1) The compounds of the present invention are active on the gastroenteric system, in particular they are endowed with anti-ulcerogenic and gastric anti-secretory activity and are therefore useful in therapy, for example in the prevention and treatment of peptic, e.g. duodenal, gastric and exophageal, ulcers and to inhibit gastric acid secretion. The compounds of the invention are also useful for reducing the undesirable gastrointestinal sideeffects resulting from systemic administration of antiinflammatory prostaglandin synthetase inhibitors and may be, therefore, used for this purpose in association with them. […] Six Sprague-Dawley male rats (100-120 g) fasted 24 hours were used for the experiment: a square flexible small-mesh were netting was used for the immobilization and 4 hours after the immobilization the rats were sacrificed, their stomachs were removed and the lesions counted under a dissecting microscope. […] Gastric antisecretory activity was evaluated in rats by the pylorus ligature technique. […] Four hours after the ligature the rats were sacrificed, the stomach secretion was collected and centrifuged at 3500 r.p.m. for 10 minutes, and the volume, less sediment, was determined.

[1] = approximate acute toxicity (LD50), single administration; details: in vivo, po; mouse; per os; single administration of increasing doses; measured on the seventh day
Procedure: In view of their high therapeutic index, the compounds of the invention can be used safely in medicine. For example, the approximate acute toxicity (LD50) of the compound 1-phenyl-5-trans-[2-(3-pyridyl)-ethenyl]-1H,7H-pyrazolo [1,5-a]pyrimidine-7-one (FCE 21542) in the mouse, determined by single administration of increasing doses and measured on the seventh day after the day of treatment, is higher than 400 mg/kg per os. Analogous toxicity data have been found for other compounds of the invention. The compounds of the invention can be administered in a variety of dosage forms, e.g. orally, in the form of tablets, capsules, sugar or film coated tablets, liquid solutions or suspensions, rectally, in the form of suppositories, parenterally, e.g. intramuscularly, or by intravenous injection or infusion. The dosage depends on the age, weight, conditions of the patient and administration route; for example the dosage adopted for oral administration to adult humans may range from about 50 to about 200 mg pro dose, from 1 to 5 times daily. The invention includes also pharmaceutical compositions comprising a compound of the invention in association with a pharmaceutically acceptable excipient (which can be a carrier or diluent).

gastric secretion = experiment: inhibition of gastric secretion, pylorus ligature technique (Shay et al.), gastric antisecretory activity; type: in vivo, Sprague-Dawley male rats; details: rat; intraduodenal at the time of pylorus ligature; 4 hours; approximate ED50; read-out: Gastric anti-secretory activity ED50 i.d.
Text: as §1
The amount of the free hydrochloric acid in the gastric juice was determined by titration against 0.01N sodium hydroxide to pH 7.0 on the pH-meter.

Compound `O=c1cc(/C=C/c2cccnc2)nc2ccn(-c3ccccc3)n12` [FCE 21542, 1-phenyl-5-trans-[2-(3-pyridyl)-ethenyl]-1H,7H-pyrazolo[1,5-a]pyrimidine-7-one] has an ED50 (restraint ulcers) of roughly 7 mg/kg, an LD50 at 168 h [1] greater than 400 mg/kg and an ED50 (gastric secretion) of roughly 3.2 mg/kg.
